# In patent publication US9167822B2, “Antifungal compositions” (DSM IP ASSETS B.V., priority 2012, dated 2015):
# Tests used:
# Penicillium italicum = assay: In vitro antifungal activity, 96-well microtiter plates; type: cell-based; details: 25° C., day 10, 0.63 ppm natamycin, 25 ppm isopyrazam or both
# Procedure: Subsequently, 100 μl of a Botrytis cinerea suspension prepared in PCB medium was used to inoculated each well with 2.5×10^3 spores/ml.
# After incubation of the microtiter plates at 25° C., the in vitro antifungal activity (%) of the individual active ingredients was assessed by calculating the reduction in mould growth observed in the presence of the active ingredient in comparison to the mould growth observed in the absence of the active ingredient. The expected antifungal activity (E in %) of the active ingredient combination was calculated according to the Colby equation (Colby, 1967): E=X+Y−[(X·Y)/100] wherein X and Y are the observed antifungal activities (in %) of the individual active ingredients X and Y, respectively. If the observed antifungal activity (O in %) of the combination exceeds the expected antifungal activity (E in %) of the combination and the resulting synergy factor O/E is thus >1.0, the combined application of the active ingredients leads to a synergistic antifungal effect.
# Furthermore, Penicillium italicum was used for inoculation.
# Botrytis cinerea = assay: as above; type: cell-based; details: 25° C., day 3, 1.25 ppm natamycin, 6.25 ppm isopyrazam or both
# Procedure: Subsequently, 100 μl of a Botrytis cinerea suspension prepared in PCB medium was used to inoculated each well with 2.5×10^3 spores/ml. […] After incubation of the microtiter plates at 25° C., the in vitro antifungal activity (%) of the individual active ingredients was assessed by calculating the reduction in mould growth observed in the presence of the active ingredient in comparison to the mould growth observed in the absence of the active ingredient. The expected antifungal activity (E in %) of the active ingredient combination was calculated according to the Colby equation (Colby, 1967): […]
compound,measurement,setting,value
"CC(C)C1C2CCC1c1c(NC(=O)c3cn(C)nc3C(F)F)cccc12 (centres unmarked) [Isopyrazam, isopyrazam]",Observed antifungal activity O (%),Penicillium italicum,50%
same,Observed antifungal activity O (%),Botrytis cinerea,0%
